Legend:
Assay type in all cases: in vivo
[1] = Confined animal feed operation study of chickens, additive in drinking water; settings: for Harvest weight / Weight gain: day one through day 35, CSA-44 5 ppm in drinking water, control tetracycline in feed; for Death loss: in vivo
Method: A study of 50,000 birds performed in 2 groups of 25,000 birds was performed on a confined animal feed operation. The following cationic cholesterol additive (CSA-44) was added to animal drinking water:
The additive was prepared in drinking water at a concentration of 5 ppm. The dry feed administered to the chickens contained no antibiotic.
A control group of birds was delivered tetracycline in animal feed according to conventional practices.
The cationic cholesterol additive was given from day one through day 35.

[2] = test system: Lactobacillus bacteria (LAB); assay: Lactobacillus bacteria (LAB) concentration in ileum, cecum and colon of mice after oral CSA-44; settings: 10 mg/kg oral gastric lavage, 12 and 24 hours post Tx
Method: To evaluate the effectiveness of cationic cholesterol compounds on GI microbiota, the following compound (CSA-44) was administered oraly by gastric lavage to mice at 10 mg/kg:
To determine the health improvements caused by the cationic cholesterol compound, the concentration (cfu/mL) of Lactobacillus bacteria (LAB) (beneficial flora) in the ileum, cecum, and colon was determined at 12 and 24 hours. The LAB concentration was compared to control mice.
As illustrated in the graphs of FIGS. 1 and 2, the cationic cholesterol compound appears to have a significant “sparing” effect on beneficial Lactobacillus bacteria (LAB) flora (log values on y-axis) in the ileum, cecum and colon (on x-axis) when compared to control mice at 12 and 24 hours after being given CSA-44 (“post Tx”), resulting in almost a 2 log increase in LAB concentration in all 3 segments of the intestine when compared to control mice. This increase in LAB concentration flora is a surprising and unexpected result.

C. difficile ATCC 9689 = assay: Weight gain of mice after C. difficile challenge; settings: oral 10 mg/kg once, 24 and 48 hours after 1×10^5 cfu or 72 hours after 1×10^6 cfu challenge; FIG. 3
Method: In another study with the mice of Example 2, a cationic cholesterol additive was administered to determine changes in weight gain. The compound was administered orally @10/mg/kg once, 24 and 48 hours after C. difficile ATCC 9689 challenge at 1×10^5 cfu (or CFU) or 72 hours after challenge with 1×10^6 cfu (or CFU) (Day 0). The results are illustrated in the graph of FIG. 3.

C. difficile = assay: LD50 C. difficile challenge model, survival of mice; settings: administered 24 hours after C. difficile challenge; Day 0, Day 3, Day 10; versus control mice; FIG. 5
Method: The mice of Example 2 were also evaluated for decreased morbidity in an LD50 C. difficile challenge model. The cationic cholesterol compound was administered 24 hours after C. difficile challenge (“Tx 24 Hr.”). FIG. 4 illustrates the steps used in performing the study.

SMILES	Feed conversion efficiency improved ([1]; chickens, 5 ppm in drinking water, versus tetracycline control)	Harvest weight ([1]; chickens)	Weight gain ([1]; chickens)	Death loss [1]	Increase in LAB concentration compared to control mice [2]	Weight gain after challenge with C. difficile (C. difficile ATCC 9689)	Survival rate (C. difficile)
CCCCCCCCOC(=O)CC[C@@H](C)[C@H]1CC[C@H]2[C@@H]3[C@H](OC(=O)CCN)C[C@@H]4C[C@H](OC(=O)CCN)CC[C@]4(C)[C@H]3C[C@H](OC(=O)CCN)[C@]12C [CSA-44]	8%	4.22 lbs	0.120 lbs per day	535 birds	~2 log	trend for the treated mice to have greater weight gain	improved survival rate
CN(C)[C@@H]1C(O)=C(C(N)=O)C(=O)[C@@]2(O)C(O)=C3C(=O)c4c(O)cccc4[C@@](C)(O)[C@H]3C[C@@H]12 [tetracycline, reference compound]		3.85 lbs	0.112 lbs per day	1400-1500 birds			
